According to ChEMBL document CHEMBL3098059, “Identification by in silico and in vitro screenings of small organic molecules acting as reversible inhibitors of kallikreins” (Eur J Med Chem, 2013):
The source made the active and inactive calls. No cut-off for these calls is given here.

Assays:
[1] = molecular target: T1, Kallikrein-7 (Homo sapiens, UniProt P49862); experiment: Inhibition of human kallikrein7 using Suc-Leu-Leu-Val-Tyr-AMC as substrate at 50 uM after 15 mins by fluorescence assay
Target sequence in this assay (P49862 30-253 limits assumed): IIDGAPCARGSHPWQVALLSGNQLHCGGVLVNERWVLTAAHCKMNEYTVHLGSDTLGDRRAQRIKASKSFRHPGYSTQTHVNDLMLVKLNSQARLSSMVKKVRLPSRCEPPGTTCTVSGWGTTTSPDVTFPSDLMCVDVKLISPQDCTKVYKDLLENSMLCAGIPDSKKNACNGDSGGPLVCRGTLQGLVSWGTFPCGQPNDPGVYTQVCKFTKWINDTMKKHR

[2] = molecular target: T2, Kallikrein-14 (Homo sapiens) (UniProt Q9P0G3); experiment: Reversible inhibition of human kallikrein14 using Boc-Val-Pro-Arg-AMC as substrate after 15 to 60 mins by fluorescence assay
T2 sequence (whole entry): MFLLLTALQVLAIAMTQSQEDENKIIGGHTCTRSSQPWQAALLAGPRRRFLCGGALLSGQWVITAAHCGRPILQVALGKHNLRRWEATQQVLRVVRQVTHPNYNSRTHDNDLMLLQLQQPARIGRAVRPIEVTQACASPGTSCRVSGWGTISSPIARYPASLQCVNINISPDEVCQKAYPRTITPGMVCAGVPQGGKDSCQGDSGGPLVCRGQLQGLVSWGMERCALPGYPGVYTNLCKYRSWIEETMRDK

[3] = molecular target: Kallikrein-5 (Homo sapiens) (UniProt Q9Y337); experiment: Reversible inhibition of human kallikrein5 using Boc-Val-Pro-Arg-AMC as substrate after 15 to 60 mins by fluorescence assay
[4] = molecular target: T3, Suppressor of tumorigenicity 14 protein (Homo sapiens) (UniProt Q9Y5Y6); experiment: Inhibition of matriptase (unknown origin) using Boc-Gln-Ala-Arg-AMC as substrate at 50 uM after 15 mins by fluorescence assay
T3 sequence (whole entry): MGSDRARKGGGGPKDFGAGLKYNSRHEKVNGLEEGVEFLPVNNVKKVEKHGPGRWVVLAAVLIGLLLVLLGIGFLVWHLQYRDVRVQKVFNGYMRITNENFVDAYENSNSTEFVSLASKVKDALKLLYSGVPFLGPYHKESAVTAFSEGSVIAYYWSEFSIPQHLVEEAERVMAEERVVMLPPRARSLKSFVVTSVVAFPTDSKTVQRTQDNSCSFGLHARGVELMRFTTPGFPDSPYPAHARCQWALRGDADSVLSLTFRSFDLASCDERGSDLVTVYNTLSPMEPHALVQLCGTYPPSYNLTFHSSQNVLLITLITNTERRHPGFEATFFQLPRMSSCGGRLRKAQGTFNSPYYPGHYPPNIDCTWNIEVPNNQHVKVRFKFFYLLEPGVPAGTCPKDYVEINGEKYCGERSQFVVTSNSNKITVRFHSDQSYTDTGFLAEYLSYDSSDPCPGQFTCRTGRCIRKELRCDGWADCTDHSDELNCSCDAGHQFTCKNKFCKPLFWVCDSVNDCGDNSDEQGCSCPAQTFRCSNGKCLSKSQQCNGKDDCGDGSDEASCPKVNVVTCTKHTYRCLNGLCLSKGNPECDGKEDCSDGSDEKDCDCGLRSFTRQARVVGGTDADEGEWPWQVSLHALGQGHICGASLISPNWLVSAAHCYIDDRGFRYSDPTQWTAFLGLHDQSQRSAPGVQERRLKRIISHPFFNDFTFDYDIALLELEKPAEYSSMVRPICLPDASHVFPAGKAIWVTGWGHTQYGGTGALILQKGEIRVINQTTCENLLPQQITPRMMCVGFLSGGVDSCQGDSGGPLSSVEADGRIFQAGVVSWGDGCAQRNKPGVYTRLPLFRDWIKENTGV

[5] = molecular target: T2, Kallikrein-14 (Homo sapiens); experiment: Inhibition of human kallikrein14 using Boc-Val-Pro-Arg-AMC as substrate at 50 uM after 15 mins by fluorescence assay
[6] = molecular target: T1, Kallikrein-7; experiment: Reversible inhibition of human kallikrein7 using Suc-Leu-Leu-Val-Tyr-AMC as substrate after 15 to 60 mins by fluorescence assay
Target sequence in this assay (P49862 30-253 limits assumed): as the sequence (P49862 30-253 limits assumed) above

[7] = molecular target: T3, Suppressor of tumorigenicity 14 protein (Homo sapiens); experiment: Reversible inhibition of matriptase (unknown origin) using Boc-Gln-Ala-Arg-AMC as substrate after 15 to 60 mins by fluorescence assay
[8] = molecular target: Kallikrein-5 (Homo sapiens) (UniProt Q9Y337); experiment: Inhibition of human kallikrein5 using Boc-Val-Pro-Arg-AMC as substrate at 50 uM after 15 mins by fluorescence assay
[9] = Cytotoxicity against human keratinocytes assessed as cell viability at 10 uM after 24 to 48 hrs by neutral red assay; format: cell-based, Keratinocyte; conditions: for Activity: keratinocyte, 10 µM
[10] = molecular target: T4, Kallikrein-5 (Homo sapiens, UniProt Q9Y337); experiment: Competitive inhibition of human kallikrein5 using Boc-Val-Pro-Arg-AMC as substrate after 15 to 60 mins by Lineweaver-Burk/Eadie-Hofstee plot analysis
T4 sequence (Q9Y337 whole entry): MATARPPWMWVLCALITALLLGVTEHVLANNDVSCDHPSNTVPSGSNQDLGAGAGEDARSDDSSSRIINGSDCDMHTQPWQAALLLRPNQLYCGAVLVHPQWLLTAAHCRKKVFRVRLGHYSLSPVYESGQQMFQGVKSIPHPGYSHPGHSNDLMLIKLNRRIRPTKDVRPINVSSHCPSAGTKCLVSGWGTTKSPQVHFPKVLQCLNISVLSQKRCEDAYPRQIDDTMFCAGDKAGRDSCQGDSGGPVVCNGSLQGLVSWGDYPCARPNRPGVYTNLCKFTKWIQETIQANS

[11] = Cytotoxicity against human keratinocytes assessed as cell viability at 1 uM after 24 to 48 hrs by neutral red assay; format: cell-based; conditions: keratinocyte
[12] = molecular target: T4, Kallikrein-5; experiment: Inhibition of human kallikrein5 using Boc-Val-Pro-Arg-AMC as substrate after 15 mins by fluorescence assay
[13] = molecular target: T5, Suppressor of tumorigenicity 14 protein (Homo sapiens, UniProt Q9Y5Y6); experiment: Inhibition of matriptase (unknown origin) using Boc-Gln-Ala-Arg-AMC as substrate after 15 mins by fluorescence assay
T5 sequence (Q9Y5Y6 whole entry): T3 sequence (whole entry)

[14] = molecular target: T1, Kallikrein-7; experiment: Inhibition of human kallikrein7 using Suc-Leu-Leu-Val-Tyr-AMC as substrate after 15 mins by fluorescence assay
Target sequence in this assay (P49862 whole entry): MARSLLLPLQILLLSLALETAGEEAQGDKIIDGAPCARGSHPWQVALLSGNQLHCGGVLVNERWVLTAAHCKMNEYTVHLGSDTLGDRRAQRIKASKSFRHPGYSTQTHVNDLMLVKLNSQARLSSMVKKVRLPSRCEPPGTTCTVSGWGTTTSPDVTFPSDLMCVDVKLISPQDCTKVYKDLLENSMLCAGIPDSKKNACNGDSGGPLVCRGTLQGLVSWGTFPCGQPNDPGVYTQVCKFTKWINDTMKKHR

[15] = molecular target: T1, Kallikrein-7; experiment: Mixed-type inhibition of human kallikrein7 using Suc-Leu-Leu-Val-Tyr-AMC as substrate assessed as enzyme-substrate-inhibitor complex after 15 to 60 mins by Lineweaver-Burk/Eadie-Hofstee plot analysis
Target sequence in this assay (P49862 whole entry): as above

[16] = molecular target: T6, Kallikrein-14 (Homo sapiens, UniProt Q9P0G3); experiment: Inhibition of human kallikrein14 using Boc-Val-Pro-Arg-AMC as substrate after 15 mins by fluorescence assay
T6 sequence (Q9P0G3 whole entry): T2 sequence (whole entry)

[17] = molecular target: T1, Kallikrein-7; experiment: Ratio of Ki for mixed-type inhibition of human kallikrein7 assessed as enzyme-substrate-inhibitor complex to Ki for mixed-type inhibition of human kallikrein7 assessed as enzyme-inhibitor complex
Target sequence in this assay (P49862 30-253 limits assumed): as the sequence (P49862 30-253 limits assumed) above

[18] = molecular target: T1, Kallikrein-7; experiment: Mixed-type inhibition of human kallikrein7 using Suc-Leu-Leu-Val-Tyr-AMC as substrate assessed as enzyme-inhibitor complex after 15 to 60 mins by Lineweaver-Burk/Eadie-Hofstee plot analysis
Target sequence in this assay (P49862 whole entry): as the sequence (P49862 whole entry) above

[19] = Cytotoxicity against human keratinocytes assessed as cell viability at 100 uM after 24 to 48 hrs by neutral red assay; format: cell-based; conditions: keratinocyte
[20] = molecular target: Kallikrein-5 (Homo sapiens) (UniProt Q9Y337); experiment: Competitive inhibition of human kallikrein5 using Boc-Val-Pro-Arg-AMC as substrate at 50 uM after 15 to 60 mins by Lineweaver-Burk/Eadie-Hofstee plot analysis

Structure (SMILES)	inhibition [1] [%]	inhibition [2]	inhibition [3]	inhibition [4] [%]	inhibition [5] [%]	inhibition [6]	inhibition [7]	inhibition [8] [%]	Activity [9]	Ki [10] [µM]	Activity [11]	IC50 [12] [µM]	IC50 [13] [µM]	IC50 [14] [µM]	Ki [15] [µM]	IC50 [16] [µM]	Ratio Ki [17]	Ki [18] [µM]	further results
CCOc1ccc(/C=C(/C#N)C(=O)Nc2ccc(O)cc2)cc1OC	< 30	Active	Active	< 30	< 30	Active	Active	< 30											
CCOc1cc(/C=C(/C#N)C(=O)Nc2ccc(O)cc2)ccc1O		Active	Active			Active	Active		Non-toxic	107	Non-toxic	117	98	94	152	101	2	75	
COc1ccc(NC(=O)/C(C#N)=C\c2ccc(O)c(OC)c2)cc1		Active	Active			Active	Active			100		127	120	90	164	99	2	72	
CCOc1cc(/C=C(/C#N)C(=O)Nc2ccc(O)cc2)ccc1OC	< 30	Active	Active	< 30	< 30	Active	Active	< 30											
CCOc1cccc(NC(=O)/C(C#N)=C\c2ccc(O)c(OC)c2)c1	< 30	Active	Active	< 30	< 30	Active	Active	< 30											
COc1cc(/C=C(/C#N)c2nc3ccccc3[nH]2)ccc1OCc1ccccc1	< 30	Active	Active	< 30	< 30	Active	Active	< 30											
COc1cc(/C=C(/C#N)c2nc3ccccc3[nH]2)ccc1OCC(=O)N1CCOCC1		Active	Active			Active	Active		Non-toxic	121	Non-toxic	125	128	83	131	108	2	55	Activity [19]: Non-toxic
COc1cc(/C=C(/C#N)C(=O)Nc2ccc(O)cc2)ccc1O		Active	Active			Active	Active			112		131	111	107	129	106	2	70	
CNC(=O)c1ccc(Nc2nnc(-c3ccc(O)cc3)c3ccccc23)cc1		Active	Active	< 30		Active	Active	< 30	Non-toxic		Non-toxic			66	166	96	2	50	inhibition [20]: < 30%
O=c1c2ccccc2nc(CSc2ccccn2)n1-c1cccc(C(F)(F)F)c1	< 30	Active	Active	< 30	< 30	Active	Active	< 30											
CCOc1cccc(NC(=O)/C(C#N)=C\c2ccc(OCC(=O)O)c(OC)c2)c1		Active	Active			Active	Active	< 30	Non-toxic		Non-toxic		75	113	140	87	2	95	inhibition [20]: < 30%
CCOc1cccc(NC(=O)/C(C#N)=C\c2ccc(O)cc2)c1	< 30	Active	Active	< 30	< 30	Active	Active	< 30											
O=c1c2ccccc2nc(CSc2[nH]cnc3ncnc2-3)n1-c1cccc(C(F)(F)F)c1	< 30	Active	Active	< 30	< 30	Active	Active	< 30											
COc1ccc(/C=C/C(=O)c2ccc(O)cc2)cc1COc1ccc(Cl)cc1	< 30	Active	Active			Active	Active	< 30					138			122			viability at 10 µM ([9]; keratinocytes, read-out: Activity): 30%
COc1ccc(/C=C2/SC(=O)N(CNc3cc(F)ccc3C)C2=O)cc1OC		Active	Active			Active	Active		Non-toxic	95	Non-toxic	117	103	106	166	112	2	83	
